{
  "source": "patent US20200352976A1",
  "about": "“HYPOMETHYLATING AGENTS FOR USE IN TREATMENT OF CANCER” (Otsuka Pharmaceutical Co., Ltd, priority 2019, published 2020)",
  "system": "intermediate-risk or high-risk myelodysplastic syndromes (MDS) or chronic myelomonocytic leukemia (CMML)",
  "experiment": "Phase 1/2 trial (Phase 2 portion) with subgroup and landmark analyses: response, survival, transfusion independence",
  "assay_type": "in vivo, human",
  "conditions": "for Median survival: all 102 patients",
  "experimental": "A multicenter, open-label, randomized, phase 1/2 trial was performed with Compound I-1 to compare the activity and safety of two doses of Compound I-1 in hypomethylating agent treatment naïve or relapsed or refractory patients with intermediate-risk or high-risk myelodysplastic syndromes.\nPatients enrolled in the study were aged 18 years or older, with a confirmed diagnosis of IPSS intermediate-1, intermediate-2, or high-risk myelodysplastic syndromes (MDS), or chronic myelomonocytic leukemia (CMML). Patients were either hypomethylating agent treatment-naïve or had relapsed or refractory disease after previous hypomethylating agent treatment as determined by the investigators' judgment (two or more complete full-dose cycles of a hypomethylating agent). The IPSS score in patients with relapsed or refractory myelodysplastic syndromes had been established at the time of their initial diagnosis. Eligible patients had Eastern Cooperative Oncology Group performance status of 0-2; adequate renal function (serum creatinine ≤1.5-times the upper limit of normal [ULN]) and adequate hepatic function (total bilirubin ≤2-times the ULN, and aspartate and alanine transaminases ≤2.5-times the ULN); had not undergone major surgery within 4 weeks or hemopoietic stem-cell transplantation within 8 weeks; or received chemotherapy within 2 weeks or nitrosoureas within 6 weeks of Compound I-1 treatment (hydroxycarbamide was allowed during treatment cycle 1). A patient with previous allogeneic stem-cell transplants was only eligible if the patient had no evidence of active graft-versus-host disease and had discontinued immunosuppressive therapy 2 weeks or more before receiving the study drug.\nPatients received subcutaneous Compound I-1 at 60 or 90 mg/m^2 on days 1-5 of a 28-day treatment cycle. The intention was to provide the standard planned dose for four or more cycles; dose reduction could be instituted, as necessary, and the length of treatment cycles could be extended up to 42 days to allow for bone-marrow recovery in cases of severe cytopenia. Additional delay or dose reduction was allowed for recovery from toxicity in previous cycles based on the physician's judgment.\nHematological responses were monitored by analysis of blood and bone marrow aspiration. After the initial bone marrow aspirate screening at baseline, the results of peripheral blood assessments determined the frequency of subsequent bone marrow aspiration to confirm response or assess drug-related bone marrow toxicity. Complete peripheral blood counts and white blood cell differentials were measured at least once a week, including granulocyte numbers, platelet numbers, and hemoglobin concentration.\nThe primary endpoint was overall response, which was a composite of complete response (CR), partial response, marrow complete response (mCR), and hematological improvement. Overall response was assessed by local investigators. Secondary endpoints included the individual components of overall response, time to response, duration of response, overall survival, blood transfusion and platelet transfusion independence at weeks 8 and 16, and safety, including the incidence of adverse events, and all-cause early mortality at 30, 60, and 90 days. Exploratory analyses were done to examine the association between baseline characteristics and overall response.\nActivity and safety endpoints were evaluated for all patients who received at least one dose of study drug, and no patients who received treatment were excluded from the analyses. […] Time to response and duration of response were summarized in days using descriptive statistics. Overall survival was analyzed using the Kaplan-Meier method, with survival time censored on the last date of contact if the patient was alive or lost to follow-up. Blood and platelet transfusion independence were summarized descriptively in the subset of patients who were transfusion-dependent at baseline. […]",
  "key": {"[1]": {"conditions": "landmark analysis, at least 4 cycles (65 patients)"}},
  "data": [
    {"smiles": "Nc1ncn([C@H]2CC(OP(=O)(O)OC[C@H]3O[C@@H](n4cnc5c(=O)[nH]c(N)nc54)CC3O)[C@@H](CO)O2)c(=O)n1", "note": "(stereo partly shown) [Compound I-1]", "values": [
      {"measurement": "12-month survival", "setting": "60 mg/m^2", "value": 67, "unit": "%"},
      {"measurement": "24-month survival", "setting": "60 mg/m^2", "value": 39, "unit": "%"},
      {"measurement": "Duration of response", "setting": "60 mg/m^2", "value": 295, "unit": "days"},
      {"measurement": "Median overall survival", "setting": "60 mg/m^2", "value": 611, "unit": "days"},
      {"measurement": "Partial response", "setting": "60 mg/m^2 (n = 53)", "value": 0, "unit": "patients"},
      {"measurement": "12-month survival", "setting": "90 mg/m^2", "value": 60, "unit": "%"},
      {"measurement": "24-month survival", "setting": "90 mg/m^2", "value": 30, "unit": "%"},
      {"measurement": "Duration of response", "setting": "90 mg/m^2", "value": 207, "unit": "days"},
      {"measurement": "Median overall survival", "setting": "90 mg/m^2", "value": 399, "unit": "days"},
      {"measurement": "Partial response", "setting": "90 mg/m^2 (n = 49)", "value": 0, "unit": "patients"},
      {"measurement": "Median survival", "setting": "4 or more treatment cycles", "value": 20.4, "unit": "months"},
      {"measurement": "OS", "setting": "6 or more treatment cycles", "value": 23.8, "unit": "months"},
      {"measurement": "OS hazard ratio", "setting": "6 or more vs less than 6 treatment cycles", "value": 0.41},
      {"measurement": "Partial response", "setting": "All patients (n = 102)", "value": 0, "unit": "patients"},
      {"measurement": "Median OS", "setting": "Baseline BM Blasts >5%", "value": 12.3, "unit": "months"},
      {"measurement": "Median OS", "setting": "Baseline BM Blasts ≤5%", "value": 22.7, "unit": "months"},
      {"measurement": "Median OS", "setting": "Baseline ECOG PS 0-1", "value": 15.6, "unit": "months"},
      {"measurement": "Median OS", "setting": "Baseline ECOG PS 2", "value": 8.7, "unit": "months"},
      {"measurement": "Median OS", "setting": "Baseline RBCs Transfusion Dependent", "value": 11.7, "unit": "months"},
      {"measurement": "Median OS", "setting": "Baseline RBCs Transfusion Independent", "value": 20.4, "unit": "months"},
      {"measurement": "Partial response", "setting": "Relapsed or refractory (n = 53)", "value": 0, "unit": "patients"},
      {"measurement": "Median OS", "setting": "TN MDS/CMML patients", "value": 23.4, "unit": "months"},
      {"measurement": "Partial response", "setting": "Treatment-naïve (n = 49)", "value": 0, "unit": "patients"},
      {"measurement": "Survival hazard ratio", "setting": "at least 4 vs less than 4 treatment cycles", "value": 0.55},
      {"measurement": "Median duration of complete, partial or marrow complete response", "setting": "entire population", "value": 203, "unit": "days"},
      {"measurement": "Median overall survival", "setting": "entire study population", "value": 460, "unit": "days"},
      {"measurement": "Median OS", "setting": "landmark analysis, <4 cycles", "value": 15.2, "unit": "m"},
      {"measurement": "Objective response (OR) rate", "setting": "landmark analysis, <4 cycles (26 patients)", "value": 15, "unit": "%"},
      {"measurement": "Median OS", "setting": "landmark analysis, <6 cycles", "value": 13.6, "unit": "m"},
      {"measurement": "Objective response (OR) rate", "setting": "landmark analysis, <6 cycles (43 patients)", "value": 26, "unit": "%"},
      {"measurement": "Median OS", "setting": "landmark analysis, at least 4 cycles", "value": 20.4, "unit": "m"},
      {"measurement": "Objective response", "setting": "[1]", "value": 44, "unit": "patients"},
      {"measurement": "Objective response (OR) rate", "setting": "[1]", "value": 68, "unit": "%"},
      {"measurement": "OS HR", "setting": "landmark analysis, at least 4 vs <4 cycles", "value": 0.78},
      {"measurement": "Median OS", "setting": "landmark analysis, at least 6 cycles", "value": 23.8, "unit": "m"},
      {"measurement": "Objective response (OR) rate", "setting": "landmark analysis, at least 6 cycles (44 patients)", "value": 82, "unit": "%"},
      {"measurement": "OS HR", "setting": "landmark analysis, at least 6 vs <6 cycles", "value": 0.51},
      {"measurement": "OS HR", "setting": "landmark, absence of objective response, at least 4 vs <4 cycles", "value": 0.82},
      {"measurement": "OS HR", "setting": "landmark, absence of objective response, at least 6 vs <6 cycles", "value": 0.42},
      {"measurement": "Median survival", "setting": "less than 4 treatment cycles", "value": 8.7, "unit": "months"},
      {"measurement": "OS", "setting": "less than 6 treatment cycles", "value": 9.1, "unit": "months"},
      {"measurement": "Median time to response", "setting": "patients with CR or marrow CR, entire study population", "value": 85, "unit": "days"},
      {"measurement": "Median OS", "setting": "r/r MDS/CMML patients", "value": 11.7, "unit": "months"},
      {"measurement": "2-year survival rate", "setting": "relapsed or refractory cohort", "value": 25, "unit": "%"},
      {"measurement": "Median overall survival", "setting": "relapsed or refractory cohort", "value": 352, "unit": "days"},
      {"measurement": "Median overall survival", "setting": "relapsed/refractory, 60 mg/m^2", "value": 9.1, "unit": "months"},
      {"measurement": "Median overall survival", "setting": "relapsed/refractory, 90 mg/m^2", "value": 12.3, "unit": "months"},
      {"measurement": "2-year survival rate", "setting": "treatment-naïve cohort", "value": 44, "unit": "%"},
      {"measurement": "Median overall survival", "setting": "treatment-naïve cohort", "value": 703, "unit": "days"}
    ]}
  ]
}
